Reference: patent US6914045B2, “Glycopeptide antibiotics” (Wyeth Holdings Corporation, priority 2001, dated 2005)

Key:
Experiment in all cases: in vitro antibacterial evaluation, MIC by broth dilution
Assay type in all cases: cell-based
[1] = system: Streptococcus sp.; conditions: broth dilution, 18 hours at 35° C.
Summary of the method: (§1)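 Broth dilution per NCCLS standard M7-A2 in Muller-Hinton II […], with an inoculum of 5×10^5 CFU/mL and antibiotic spanning 64-0.06 μg/mL. The MIC is the lowest concentration that inhibits growth of the organism.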

[2] = system: Enterococcus sp.; conditions: broth dilution, 18 hours at 35° C.
Summary of the method: as §1

[3] = system: Staphylococcus sp.; conditions: broth dilution, 18 hours at 35° C.
Summary of the method: as §1

[4] = system: Escherichia coli; conditions: 18 hours at 35° C.

CC(c1ccccc1)C1NC(=O)CNC(=O)C(CO)NC(=O)C(CC2CNC(=N)N2C2OC(CO)C(O)C(O)C2O)NC(=O)C(CC2CNC(=N)N2)NC(=O)C(Cc2ccc(OC3OC(CO)C(OC4OC(CO)C(O)C(O)C4OCc4ccc(OCc5ccccc5)cc4)C(O)C3O)cc2)NC1=O (centres unmarked) [Example 246c]
>128 µg/mL: MIC Streptococcus agalactiae (GC 4564) [1] | MIC Streptococcus pyogenes (GC 4563) [1] | MIC Streptococcus pyogenes (GC 4563) ([1]; strain GC 4563) | MIC Streptococcus agalactiae (GC 4564) ([1]; strain GC 4564) | MIC Enterococcus faecalis (ATCC 29212) [2] | MIC Enterococcus faecalis (GC 2242) [2] | MIC Enterococcus faecalis (GC 2691) [2] | MIC Enterococcus faecalis (GC 3059) [2] | MIC Enterococcus faecalis (GC 4552) [2] | MIC Enterococcus faecalis (GC 4554) [2] | MIC Enterococcus faecalis (GC 6189) [2] | MIC Enterococcus faecium (GC 2243) [2] | MIC Enterococcus faecium (GC 4556) [2] | MIC Enterococcus faecalis (ATCC 29212) ([2]; strain ATCC 29212) | MIC Enterococcus faecalis (GC 2242) ([2]; strain GC 2242) | MIC Enterococcus faecium (GC 2243) ([2]; strain GC 2243) | MIC Enterococcus faecalis (GC 2691) ([2]; strain GC 2691) | MIC Enterococcus faecalis (GC 3059) ([2]; strain GC 3059) | MIC Enterococcus faecalis (GC 4552) ([2]; strain GC 4552) | MIC Enterococcus faecalis (GC 4554) ([2]; strain GC 4554) | MIC Enterococcus faecium (GC 4556) ([2]; strain GC 4556) | MIC Enterococcus faecalis (GC 6189) ([2]; strain GC 6189) | MIC Coagulase Negative Staphylococcus (GC 4547) [3] | MIC Coagulase Negative Staphylococcus (GC 4548) [3] | MIC Coagulase Negative Staphylococcus (GC 4549) [3] | MIC Coagulase Negative Staphylococcus (GC 4551) [3] | MIC Coagulase Negative Staphylococcus (GC 6257) [3] | MIC Staphylococcus aureus (ATCC 29213) [3] | MIC Staphylococcus aureus (GC 1131) [3] | MIC Staphylococcus aureus (GC 3051) [3] | MIC Staphylococcus aureus (GC 3053) [3] | MIC Staphylococcus aureus (GC 4541) [3] | MIC Staphylococcus aureus (GC 4542) [3] | MIC Staphylococcus aureus (GC 4544) [3] | MIC Staphylococcus aureus (GC 4545) [3] | MIC Staphylococcus aureus-SMITH (GC 4543) [3] | MIC Staphylococcus haemolyticus (GC 4546) [3] | MIC Staphylococcus aureus (ATCC 29213) ([3]; strain ATCC 29213) | MIC Staphylococcus aureus (GC 1131) ([3]; strain GC 1131) | MIC Staphylococcus aureus (GC 3051) ([3]; strain GC 3051) | MIC Staphylococcus aureus (GC 3053) ([3]; strain GC 3053) | MIC Staphylococcus aureus (GC 4541) ([3]; strain GC 4541) | MIC Staphylococcus aureus (GC 4542) ([3]; strain GC 4542) | MIC Staphylococcus aureus-SMITH (GC 4543) ([3]; strain GC 4543) | MIC Staphylococcus aureus (GC 4544) ([3]; strain GC 4544) | MIC Staphylococcus aureus (GC 4545) ([3]; strain GC 4545) | MIC Staphylococcus haemolyticus (GC 4546) ([3]; strain GC 4546) | MIC Coagulase Negative Staphylococcus (GC 4547) ([3]; strain GC 4547) | MIC Coagulase Negative Staphylococcus (GC 4548) ([3]; strain GC 4548) | MIC Coagulase Negative Staphylococcus (GC 4549) ([3]; strain GC 4549) | MIC Coagulase Negative Staphylococcus (GC 4551) ([3]; strain GC 4551) | MIC Coagulase Negative Staphylococcus (GC 6257) ([3]; strain GC 6257) | MIC Escherichia coli (ATCC 25922) [4] | MIC Escherichia coli (GC 4559) [4]
64 µg/mL: MIC Streptococcus pneumoniae (GC 1894) [1] | MIC Streptococcus pneumoniae (GC 1894) ([1]; strain GC 1894) | MIC Enterococcus avium (GC 4558) [2] | MIC Enterococcus avium (GC 4558) ([2]; strain GC 4558)
32 µg/mL: MIC Escherichia coli (GC 4560) [4]
128 µg/mL: MIC Streptococcus pneumoniae (ATCC 6301) [1] | MIC Streptococcus pneumoniae (GC 4565) [1] | MIC Streptococcus pneumoniae (ATCC 6301) ([1]; strain ATCC 6301) | MIC Streptococcus pneumoniae (GC 4565) ([1]; strain GC 4565) | MIC Enterococcus faecalis (GC 4553) [2] | MIC Enterococcus faecium (GC 4557) [2] | MIC Enterococcus faecalis (GC 4553) ([2]; strain GC 4553) | MIC Enterococcus faecium (GC 4557) ([2]; strain GC 4557)

CC(c1ccccc1)C1NC(=O)CNC(=O)C(CO)NC(=O)C(C(O)C2CNC(=N)N2C2OC(CO)C(O)C(O)C2O)NC(=O)C(C(O)C2CNC(=N)N2)NC(=O)C(Cc2ccc(OC3OC(CO)C(OC4OC(COCc5ccc(Oc6ccccc6)cc5)C(O)C(O)C4O)C(O)C3O)cc2)NC1=O (centres unmarked) [Example 236]
2 µg/mL: MIC Enterococcus avium (GC 4558) [2] | MIC Enterococcus faecalis (GC 2691) [2] | MIC Enterococcus faecalis (GC 3059) [2] | MIC Enterococcus faecalis (GC 6189) [2] | MIC Enterococcus faecium (GC 4557) [2] | MIC Enterococcus faecium (GC 4557) ([2]; strain GC 4557) | MIC Enterococcus avium (GC 4558) ([2]; strain GC 4558) | MIC Enterococcus faecalis (GC 6189) ([2]; strain GC 6189) | MIC Enterococcus faecalis (GC 2691) ([2]; inoculum 5×10^5 CFU/mL, strain GC 2691) | MIC Enterococcus faecalis (GC 3059) ([2]; inoculum 5×10^5 CFU/mL, strain GC 3059) | MIC Coagulase Negative Staphylococcus (GC 4547) [3] | MIC Coagulase Negative Staphylococcus (GC 4551) [3] | MIC Staphylococcus aureus (ATCC 29213) [3] | MIC Staphylococcus aureus (GC 1131) [3] | MIC Staphylococcus aureus (GC 3051) [3] | MIC Staphylococcus aureus (GC 3053) [3] | MIC Staphylococcus aureus (GC 4541) [3] | MIC Staphylococcus aureus (GC 4544) [3] | MIC Staphylococcus aureus (GC 4545) [3] | MIC Staphylococcus aureus-SMITH (GC 4543) [3] | MIC Staphylococcus haemolyticus (GC 4546) [3] | MIC Staphylococcus aureus (ATCC 29213) ([3]; strain ATCC 29213) | MIC Staphylococcus aureus (GC 1131) ([3]; strain GC 1131) | MIC Staphylococcus aureus (GC 3051) ([3]; strain GC 3051) | MIC Staphylococcus aureus (GC 3053) ([3]; strain GC 3053) | MIC Staphylococcus aureus (GC 4541) ([3]; strain GC 4541) | MIC Staphylococcus aureus-SMITH (GC 4543) ([3]; strain GC 4543) | MIC Staphylococcus aureus (GC 4544) ([3]; strain GC 4544) | MIC Staphylococcus aureus (GC 4545) ([3]; strain GC 4545) | MIC Staphylococcus haemolyticus (GC 4546) ([3]; strain GC 4546) | MIC Coagulase Negative Staphylococcus (GC 4547) ([3]; strain GC 4547) | MIC Coagulase Negative Staphylococcus (GC 4551) ([3]; strain GC 4551)
1 µg/mL: MIC Coagulase Negative Staphylococcus (GC 6257) [3] | MIC Coagulase Negative Staphylococcus (GC 6257) ([3]; strain GC 6257) | MIC Escherichia coli (GC 4560) [4]
0.12 µg/mL: MIC Streptococcus agalactiae (GC 4564) [1] | MIC Streptococcus agalactiae (GC 4564) ([1]; inoculum 5×10^5 CFU/mL, strain GC 4564)
<0.06 µg/mL: MIC Streptococcus pneumoniae (ATCC 6301) [1] | MIC Streptococcus pneumoniae (GC 1894) [1] | MIC Streptococcus pneumoniae (GC 4565) [1] | MIC Streptococcus pyogenes (GC 4563) [1] | MIC Streptococcus pneumoniae (ATCC 6301) ([1]; inoculum 5×10^5 CFU/mL, strain ATCC 6301) | MIC Streptococcus pneumoniae (GC 1894) ([1]; inoculum 5×10^5 CFU/mL, strain GC 1894) | MIC Streptococcus pyogenes (GC 4563) ([1]; inoculum 5×10^5 CFU/mL, strain GC 4563) | MIC Streptococcus pneumoniae (GC 4565) ([1]; inoculum 5×10^5 CFU/mL, strain GC 4565)
>64 µg/mL: MIC Escherichia coli (ATCC 25922) [4] | MIC Escherichia coli (GC 4559) [4]
0.5 µg/mL: MIC Coagulase Negative Staphylococcus (GC 4548) [3] | MIC Coagulase Negative Staphylococcus (GC 4549) [3] | MIC Coagulase Negative Staphylococcus (GC 4548) ([3]; strain GC 4548) | MIC Coagulase Negative Staphylococcus (GC 4549) ([3]; strain GC 4549)
4 µg/mL: MIC Enterococcus faecalis (ATCC 29212) [2] | MIC Enterococcus faecalis (GC 2242) [2] | MIC Enterococcus faecalis (GC 4552) [2] | MIC Enterococcus faecalis (GC 4553) [2] | MIC Enterococcus faecalis (GC 4554) [2] | MIC Enterococcus faecium (GC 2243) [2] | MIC Enterococcus faecium (GC 4556) [2] | MIC Enterococcus faecalis (ATCC 29212) ([2]; strain ATCC 29212) | MIC Enterococcus faecium (GC 2243) ([2]; strain GC 2243) | MIC Enterococcus faecalis (GC 4552) ([2]; strain GC 4552) | MIC Enterococcus faecalis (GC 4553) ([2]; strain GC 4553) | MIC Enterococcus faecalis (GC 4554) ([2]; strain GC 4554) | MIC Enterococcus faecium (GC 4556) ([2]; strain GC 4556) | MIC Enterococcus faecalis (GC 2242) ([2]; inoculum 5×10^5 CFU/mL, strain GC 2242) | MIC Staphylococcus aureus (GC 4542) [3] | MIC Staphylococcus aureus (GC 4542) ([3]; strain GC 4542)
